In US11414465B2, “Plasma membrane intrinsic aquaporin for absorbing and transporting neonicotinoid insecticides, and coding gene and use therefor” (JIANGSU ACADEMY OF ARGRICULTURAL SCIENCES, priority 2020, dated 2022):

Key:
[1] = system: BraPIP1;1 overexpression Arabidopsis thaliana (BraPIP1;1#4, BraPIP1;1#6); assay: Main root length of BraPIP1;1 transgenic Arabidopsis thaliana under thiamethoxam stress; assay type: in vivo; conditions: 1/2MS media with 10 and 50 mg/L thiamethoxam, 20 days, compared with wild type Col-0
Text: (§1) The BraPIP1;1 gene cloned in Example 1 was constructed into the plant binary overexpression vector pCAMBIA2301 (purchased from Clotech). By the Agrobacterium tumefaciens-mediated method (Valvekens, D., van Montagu, M., and Lijsebettens, M. V. (1988). Agrobacterium tumefaciens-mediated transformation of Arabidopsis thaliana root explants by using kanamycin selection. Proc. Natl. Acad. Sci. USA 85, 5536-5540.), the inflorescence of wild-type Arabidopsis thaliana Col-0 (purchased from ATCC, USA) was infected with the constructed overexpression vector. Through screening (resistance pure line seedlings were screened on a ½MS plate containing 50 μg/mL kanamycin), BraPIP1;1 overexpression Arabidopsis thaliana pure line materials BraPIP1;1#4 and BraPIP1;1#6 were identified and obtained.
The pure line seeds of the BraPIP1;1#4 and BraPIP1;1#6 obtained in the previous transgenic experiment and a wild-type Col-0 material (WT) were germinated on a ½MS medium respectively, and then transferred to ½MS media (Qingdao Hopebio Co., Ltd., Item No. HB8469-12, PH=5.6) containing 10 and 50 mg/L thiamethoxam respectively. After 20 days, the growth of the seedlings was observed and the main root length was measured.

[2] = system: Saccharomyces cerevisiae INVSc1 (pYES2); assay: Thiamethoxam content experiment, control yeast strain; assay type: cell-based; conditions: 30° C., 6 h
Text: (§2) The BraPIP1;1 gene cloned in Example 1 was constructed into the Saccharomyces cerevisiae overexpression vector pYES2 (purchased from Clotech) referring to (He Lin, Jiang Lili, Wang Yucheng, Analysis of the stress tolerance of Tamarix thioredoxin peroxidase (ThPrx1) gene transformed into yeast, Journal of Northeast Forestry University, 2011, Vol. 39. No. 4, 101-104), and the constructed recombinant plasmid was named pYES2-BraPIP1;1. The pYES2-BraPIP1;1 and an empty vector pYES2 were transformed into Saccharomyces cerevisiae INVSc1 by lithium acetate precipitation. The recombinant yeasts were named INVSc1 (pYES2-BraPIP1;1) and INVSc1 (pYES2), respectively.
(§3) Induction of recombinant strains: Single colonies of the control yeast INvsc1 (pYES2) and the recombinant yeast INvscl (pYES2-BraPIP1;1) were picked, inoculated in an SC-U liquid medium (with glucose of a final concentration of 2%) respectively, and incubated at 30° C. for 24 h on a shaker. The OD600 value is measured, and the amount of bacterial solution required is calculated such that the OD600 of bacteria in 10 ml of induction medium (SC-U+2% galactose) is 0.4. Induce expression was carried out at 30° C. for 24 h. The OD600 value was measured again, and the amount of bacterial solution required was calculated. […]

[3] = system: BraPIP1;1 overexpression Arabidopsis thaliana; assay: Thiamethoxam content of BraPIP1;1 transgenic Arabidopsis thaliana grown in soil; assay type: in vivo; conditions: soil containing 10 mg/L thiamethoxam, 20 days, compared with wild plant
Text: as §1
In addition, germinated seedlings of the same size were transplanted into soil containing 10 mg/L thiamethoxam, and after 20 days of culture, the root and aboveground samples of the transgenic Arabidopsis thaliana and the control were harvested respectively, washed with deionized water, and weighed.

[4] = system: Saccharomyces cerevisiae INVSc1 (pYES2-BraPIP1;1); assay: Growth experiment of recombinant yeast strains under thiamethoxam stress; assay type: cell-based; conditions: 10-1600 mg/L thiamethoxam, stress at 30° C. for 72 h, compared with wild strain (pYES2)
Text: as §2, §3

BraPIP1;1 gene = assay: Response of BraPIP1;1 gene expression to thiamethoxam (quantitative RT-PCR); assay type: in vivo, Chinese cabbage; conditions: 10 mg/L thiamethoxam, p<0.001
Protocol: Seedlings of Chinese cabbage with the same growth condition were put in a Hoagland's nutrient solution containing 10 mg/L thiamethoxam (the Hoagland's nutrient solution was purchased from Beijing Coolaber Technology Co., Ltd.), and treated in the Hoagland's nutrient solution for 6 and 24 hours (treatment group).
At the same time, a Hoagland's nutrient solution without thiamethoxam was used as the control group.
Treated root and aboveground tissue RNA of two groups was extracted respectively, the 1st strand cDNA was obtained by reverse transcription as a template, specific expression primers were designed based on the cDNA sequence of BraPIP1;1, the Chinese cabbage Tublin was used as an internal reference, and the expression of the gene transcription level was detected by quantitative RT-PCR.
The quantification instrument is 7500 Real Time PCR System (Applied Biosystem), and a qPCRT system was configured according to the instructions of a kit 2×TSINGKE Master qPCR Mix (Tsingke Biotechnology Co., Ltd.). The PCR program is: pre-denaturation at 95° C. for 10 min, at 95° C. for 15 s, and at 60° C. for 20 s, for 40 cycles.

[5] = system: Saccharomyces cerevisiae INVSc1 (pYES2-BraPIP1;1); assay: Thiamethoxam content experiment, recombinant yeast strain; assay type: cell-based; conditions: 30° C., 6 h
Text: as §2, §3

Chinese cabbage plants = conditions: 2 mg/L compound in Hoagland nutrient solution, mercuric chloride or glycerol added, 48 h

Row | Compound | main root length of the transgenic strain [1] | thiamethoxam content of the control strain ([2]; 10 mg/L thiamethoxam) [ng/OD] | thiamethoxam content of the control strain (pYES2) ([2]; 100 mg/L thiamethoxam) [ng/OD] | thiamethoxam content of the aboveground parts of the transgenic plant [3] | thiamethoxam content of the roots of the transgenic plant [3] | growth of transgenic strain (pYES2-BraPIP1;1) with thiamethoxam [4] | expression abundance of BraPIP1;1 in the aboveground parts vs control (BraPIP1;1 gene; 6 hours) | expression abundance of BraPIP1;1 in the roots vs control (BraPIP1;1 gene; 6 hours) | expression abundance of BraPIP1;1 in the aboveground parts vs control (BraPIP1;1 gene; 24 hours) | thiamethoxam content of the recombinant strain ([5]; 10 mg/L thiamethoxam) [ng/OD] | thiamethoxam content of the recombinant strain (pYES2-BraPIP1;1) ([5]; 100 mg/L thiamethoxam) [ng/OD] | content of the compound in the plants after the water channel inhibitors were added (Chinese cabbage plants)
1 | CN1COCN(Cc2cnc(Cl)s2)/C1=N\[N+](=O)[O-] [thiamethoxam] | shorter than that of the wild type | 0.0038 | 0.011 | higher than that of the wild plant | higher than that of the wild plant | grows weaker than the wild strain | significantly increased | significantly increased | significantly increased | 0.0078 | 0.021 | –
2 | CN1CCCC1c1cccnc1 (stereo not drawn) [nicotine] | – | – | – | – | – | – | – | – | – | – | – | did not change significantly
